Paper PMC10098121, “Amphipathic barbiturates as marine product mimics with cytolytic and immunogenic effects on head and neck squamous cell carcinoma cell lines” (Frontiers in Pharmacology, 2023)

Each molecule was assayed on human red blood cells (assay: Hemolysis assay). Settings: Homo sapiens, Erythrocyte; 1 h, 37°C; highest concentration tested 500 μM; average of three experiments; read-out: EC50 hemolytic activity against human red blood cells.
Assay type: cell-based
Procedure: The hemolytic effect of the MPMs was determined using a hemolysis assay as previously described ([Paulsen et al., 2021]). Briefly, hemolysis was determined using a heparinized fraction (10 IU/mL) of freshly drawn blood. The blood collected in ethylenediaminetetraacetic acid-containing test tubes (Vacutest, KIMA, Arzergrande, Italy) was used for the determination of the hematocrit (hct). The heparinized blood was washed 3 × with pre-warmed phosphate-buffered saline (PBS) and adjusted to a final hct of 4%. MPMs in DMSO (50 mM) were added to a 96-well polypropylene V-bottom plate (NUNC, Fisher Scientific, Oslo, Norway) and serially diluted. The test concentration range was 4–500 μM with DMSO contents ≤1%. A solution of 1% triton X-100 was used as a positive control for 100% hemolysis. As a negative control, a solution of 1% DMSO in PBS was included. Red blood cells (1% v/v final concentration) were added to the well plate and incubated at 37°C and 800 rpm for 1 h. After centrifugation (5 min, 3000 g), 100 μL from each well was transferred to a 96-well flat-bottomed microtiter plate, and absorbance was measured at 545 nm with a microplate reader (VersaMaxTM, Molecular Devices, Sunnyvale, CA, United States). The percentage of hemolysis was calculated as the ratio of the absorbance in the MPM treated and surfactant-treated samples, corrected for the PBS background. Three independent experiments were performed, and EC50 values are presented as averages.
`CN(C)CCN1C(=O)N(CCN(C)C)C(=O)C(CCCc2ccccc2)(CCCc2ccccc2)C1=O` [MPM-2:2] was tested, and the EC50 was greater than 500 µM.

What follows are molecules tested on HSC-3 (assay: High throughput drug screening (CellTiter-Glo, DSS)). Settings: HSC-3, 72 h, 10-100,000 nM, myogel, non-irradiated.
Assay type: cell-based, human
Procedure: (§1) The MPMs were screened against a panel of […] different cell lines (HSC-3, UT-SCC-8, UT-SCC-24A, UT-SCC-24B, UT-SCC-42A, UT-SCC-42B and NOF) at the High Throughput Biomedicine Unit (HTB) at the Institute for Molecular Medicine Finland (FIMM). On day 1, black-walled 384-well plates were coated with 5 µl diluted myogel (0.5 mg/ml) per well using an automated reagent dispenser (MultiFlo FX, BioTek, Winooski, VT, United States). On day 2, 500 cells per well were seeded in 20 µl of complete media using the MultiFlo FX (BioTek), and the cells were left to adhere overnight. On day 3, the MPMs, cisplatin, DMSO and Benzethonium chloride were added to the cells using an automatic liquid handler (Echo 550, Labcyte Inc., San Jose, CA, United States). Cisplatin and the MPMs were added to yield five different concentrations in a ten-fold dilution series ranging from 10 to 100,000 nM. Each concentration was tested in triplicate wells. DMSO (0.1%) and benzethonium chloride (100 µM) served as negative and positive control, respectively. Three hours later, some of the plates were irradiated with 2 Gy in a gamma irradiator (OB29/4, STS, Braunschweig, Germany). All plates were taken to the irradiation room to ensure similar handling of the plates. 72 h later, the plates were cooled to room temperature before 25 µl of CellTiter-Glo 2.0 reagent (Promega, Madison, WI, USA) was added to each well using the MultiFlo FX (BioTek). Next, the plates were centrifuged for 5 min at 1,000 rpm before the luminescence signal was measured with the PHERAstar FS HT reader (BMG LABTECH GmbH, Ortenberg, Germany). The raw data was analyzed with the Breeze software (https://breeze.fmm.fi), which normalized the luminescence signal from treated cells against the signal from negative and positive control cells to calculate the percentage of inhibition and generate dose-response curves, which were then used to calculate drug sensitivity scores (DSS). The DSS is a parameter which combines the IC50, the slope of the dose-response curve, and the minimum and maximum responses into a single metric, as previously described ([Yadav et al., 2014]). Quality control was performed by calculation of the Z′-factor, which was >0.7 for all cell lines, indicating high quality of the assay ([Zhang et al., 1999]).
For `CN(C)CCN1C(=O)N(CCN(C)C)C(=O)C(CCCc2ccccc2)(CCCc2ccccc2)C1=O` [MPM-2:2], the “drug sensitivity score (DSS)” value was 16,8.

Same assay, conditions: HSC-3; DSS irradiated (2 Gy) minus DSS non-irradiated; >5 synergy, <–5 antagonism
In the case of `CN(C)CCN1C(=O)N(CCN(C)C)C(=O)C(CCCc2ccccc2)(CCCc2ccccc2)C1=O` [MPM-2:2], the “delta DSS (ΔDSS)” value is reported as 1,4.

Each molecule was assayed on NOF (normal oral fibroblasts) in the same assay as above. Settings: 72 h, 10-100,000 nM, myogel, non-irradiated.
Assay type: cell-based, human
Procedure: as §1
`CN(C)CCN1C(=O)N(CCN(C)C)C(=O)C(CCCc2ccccc2)(CCCc2ccccc2)C1=O` [MPM-2:2] was tested, and the “drug sensitivity score (DSS)” value was 19,2.

Same assay, conditions: DSS irradiated (2 Gy) minus DSS non-irradiated, >5 synergy, <–5 antagonism
`CN(C)CCN1C(=O)N(CCN(C)C)C(=O)C(CCCc2ccccc2)(CCCc2ccccc2)C1=O` [MPM-2:2] was tested, and the “delta DSS (ΔDSS)” value was -1,2.

The molecules below were run on UT-SCC-106A in the same assay as above. Settings: 72 h, 10-100,000 nM, myogel, non-irradiated.
Assay type: cell-based, human
Procedure: as §1
With `CN(C)CCN1C(=O)N(CCN(C)C)C(=O)C(CCCc2ccccc2)(CCCc2ccccc2)C1=O` [MPM-2:2] the “drug sensitivity score (DSS)” value was 18,6.

Same assay, conditions: DSS irradiated (2 Gy) minus DSS non-irradiated, >5 synergy, <–5 antagonism
With `CN(C)CCN1C(=O)N(CCN(C)C)C(=O)C(CCCc2ccccc2)(CCCc2ccccc2)C1=O` [MPM-2:2] the “delta DSS (ΔDSS)” value was -1,5.

What follows are molecules tested on UT-SCC-24A in the same assay as above. Settings: 72 h, 10-100,000 nM, myogel, non-irradiated.
Assay type: cell-based, human
Procedure: as §1
For `CN(C)CCN1C(=O)N(CCN(C)C)C(=O)C(CCCc2ccccc2)(CCCc2ccccc2)C1=O` [MPM-2:2], the “drug sensitivity score (DSS)” value was 18,1.

Same assay, conditions: DSS irradiated (2 Gy) minus DSS non-irradiated, >5 synergy, <–5 antagonism
In the case of `CN(C)CCN1C(=O)N(CCN(C)C)C(=O)C(CCCc2ccccc2)(CCCc2ccccc2)C1=O` [MPM-2:2], the “delta DSS (ΔDSS)” value is reported as -0,4.

What follows are molecules tested on UT-SCC-24B in the same assay as above. Settings: 72 h, 10-100,000 nM, myogel, non-irradiated.
Assay type: cell-based, human
Procedure: as §1
For `CN(C)CCN1C(=O)N(CCN(C)C)C(=O)C(CCCc2ccccc2)(CCCc2ccccc2)C1=O` [MPM-2:2], the “drug sensitivity score (DSS)” value was 17,8.

Same assay, conditions: DSS irradiated (2 Gy) minus DSS non-irradiated, >5 synergy, <–5 antagonism
For `CN(C)CCN1C(=O)N(CCN(C)C)C(=O)C(CCCc2ccccc2)(CCCc2ccccc2)C1=O` [MPM-2:2], the “delta DSS (ΔDSS)” value was -1,5.

What follows are molecules tested on UT-SCC-42A in the same assay as above. Settings: 72 h, 10-100,000 nM, myogel, non-irradiated.
Assay type: cell-based, human
Procedure: as §1
`CN(C)CCN1C(=O)N(CCN(C)C)C(=O)C(CCCc2ccccc2)(CCCc2ccccc2)C1=O` [MPM-2:2] was tested, and the “drug sensitivity score (DSS)” value was 13,4.

Same assay, conditions: DSS irradiated (2 Gy) minus DSS non-irradiated, >5 synergy, <–5 antagonism
For `CN(C)CCN1C(=O)N(CCN(C)C)C(=O)C(CCCc2ccccc2)(CCCc2ccccc2)C1=O` [MPM-2:2], the “delta DSS (ΔDSS)” value was 0,9.

What follows are molecules tested on UT-SCC-42B in the same assay as above. Settings: 72 h, 10-100,000 nM, myogel, non-irradiated.
Assay type: cell-based, human
Procedure: as §1
`CN(C)CCN1C(=O)N(CCN(C)C)C(=O)C(CCCc2ccccc2)(CCCc2ccccc2)C1=O` [MPM-2:2] was tested, and the “drug sensitivity score (DSS)” value was 12,9.

Same assay, conditions: DSS irradiated (2 Gy) minus DSS non-irradiated, >5 synergy, <–5 antagonism
In the case of `CN(C)CCN1C(=O)N(CCN(C)C)C(=O)C(CCCc2ccccc2)(CCCc2ccccc2)C1=O` [MPM-2:2], the “delta DSS (ΔDSS)” value is reported as -0,4.

The molecules below were run on UT-SCC-8 in the same assay as above. Settings: UT-SCC-8, 72 h, 10-100,000 nM, myogel, non-irradiated.
Assay type: cell-based, human
Procedure: as §1
In the case of `CN(C)CCN1C(=O)N(CCN(C)C)C(=O)C(CCCc2ccccc2)(CCCc2ccccc2)C1=O` [MPM-2:2], the “drug sensitivity score (DSS)” value is reported as 17.

Same assay, conditions: UT-SCC-8; DSS irradiated (2 Gy) minus DSS non-irradiated; >5 synergy, <–5 antagonism
In the case of `CN(C)CCN1C(=O)N(CCN(C)C)C(=O)C(CCCc2ccccc2)(CCCc2ccccc2)C1=O` [MPM-2:2], the “delta DSS (ΔDSS)” value is reported as 0,2.

The molecules below were run on Bacillus subtilis 168 (assay: Bacterial minimum inhibitory concentration (broth microdilution)). Settings: Bacillus subtilis 168, 48 h, 35 °C, di-TFA salts.
Assay type: cell-based
Procedure: (§2) Method for determination of bacterial minimum inhibitory concentration (MIC) Stock solutions of the water-soluble compounds were prepared by dissolving them in ultrapure water (Milli-Q H2O, Millipore, MA, USA). The less water-soluble compounds were first dissolved in 25 - 50 µL 100% DMSO before further dilution with ultrapure water. The DMSO concentration was always less than 1% in the working concentration of each compound. A modified broth microdilution susceptibility test based on the CLSI M07-A9 protocol, [2] was used to determine minimal inhibitory concentrations (MIC). Briefly, the test compounds were two-fold diluted with ultrapure water in polystyrene 96-well flat-bottom microplates (NUNC, Roskilde, Denmark). The bacterial inoculum was diluted to 2.5 - 3 x 10^4 cells/mL in Mueller-Hinton broth (MHB, Difco Laboratories, USA) and added to the different diluted compounds in a ratio of 1:1. Positive control (ciprofloxacin, Sigma-Aldrich, USA), negative control (bacteria + water), and media control (media + water) were included in each experiment. The microplates were incubated for 48 h at 35 °C in an EnVision microplate reader (PerkinElmer, Waltham, MA, USA). The lowest concentration of compounds that caused no bacterial growth, as determined by optical density (OD600) measurements, was defined as the MIC value. All compounds were tested in 3 technical replicates.
(§3) Supplementary Video S1. HSC-3 cells were seeded at 100% confluence and a standard scratch wound migration assay was performed. The cells were imaged every 2 hours for 24 hours. The video
For `CN(C)CCN1C(=O)N(CCN(C)C)C(=O)C(CCCc2ccccc2)(CCCc2ccccc2)C1=O` [MPM-2:2], the MIC was 32 µg/mL.

These molecules were tested on Escherichia coli ATCC 25922 in the same assay as above. Settings: ATCC25922; Escherichia coli ATCC 25922, 48 h, 35 °C, di-TFA salts.
Assay type: cell-based
Procedure: as §2, §3
For `CN(C)CCN1C(=O)N(CCN(C)C)C(=O)C(CCCc2ccccc2)(CCCc2ccccc2)C1=O` [MPM-2:2], the MIC was 32 µg/mL.

The molecules below were run on Pseudomonas aeruginosa ATCC 27853 in the same assay as above. Settings: ATCC27853; Pseudomonas aeruginosa ATCC 27853, 48 h, 35 °C, di-TFA salts.
Assay type: cell-based
Procedure: as §2, §3
`CN(C)CCN1C(=O)N(CCN(C)C)C(=O)C(CCCc2ccccc2)(CCCc2ccccc2)C1=O` [MPM-2:2] gave an MIC greater than 64 µg/mL.

What follows are molecules tested on Staphylococcus aureus ATCC 9144 in the same assay as above. Settings: ATCC9144; Staphylococcus aureus ATCC 9144, 48 h, 35 °C, di-TFA salts.
Assay type: cell-based
Procedure: as §2, §3
Molecule `CN(C)CCN1C(=O)N(CCN(C)C)C(=O)C(CCCc2ccccc2)(CCCc2ccccc2)C1=O` [MPM-2:2] has an MIC greater than 64 µg/mL.
